# Measurements as given in the C3SDB collision cross section collection.
# Conditions: [M+H]+; instrument: TW; Major Mix IMS/Tof Calibration Kit (Waters)
row,SMILES,collision cross section (N2)
1,CN1C(=O)CN=C(c2ccccc2F)c2cc(N)ccc21 [Flunitrazepam-M 7-amino],163.1 Å²
2,CN1C(=O)CN=C(c2ccccc2F)c2cc([N+](=O)[O-])ccc21 [Flunitrazepam],168.6 Å²
3,FC(F)(F)c1ccc2c(c1)C(=CCCN1CCNCC1)c1ccccc1S2 [Flupentixol-M N-desalkyl],186 Å²
4,O=S1c2ccccc2/C(=C\CCN2CCN(CCO)CC2)c2cc(C(F)(F)F)ccc21 (stereo not given) [Flupentixol-M sulphoxide],196.8 Å²
5,OCCN1CCN(CC/C=C2\c3ccccc3Sc3ccc(C(F)(F)F)cc32)CC1 [Flupentixol],199.4 Å²
6,CCN(CC)CCN1C(=O)CN=C(c2ccccc2F)c2cc(Cl)ccc21 [Flurazepam],185.3 Å²
7,COc1ccc(Cl)cc1C(=O)NCCc1ccc(S(=O)(=O)NC(=O)NC2CCCCC2)cc1 [Glyburide],204.7 Å²
8,CN1CC[C@]23c4c5ccc(O)c4O[C@H]2C(=O)CC[C@H]3[C@H]1C5 [Hydromorphone],163.9 Å²
9,CCN(CCO)CCCC(C)Nc1ccnc2cc(Cl)ccc12 (stereo not given) [Hydroxychloroquine],180.2 Å²
10,CNCCCN1c2ccccc2CCc2ccccc21 [Imipramine-M Nor],163.3 Å²
11,Cc1cc(C(=O)NNCc2ccccc2)no1 [Isocarboxazid],152.1 Å²
12,CCC(=O)C1(c2cccc(O)c2)CCN(C)CC1 [Ketobemidone],159.7 Å²
13,CC(CCc1ccccc1)NCC(O)c1ccc(O)c(C(N)=O)c1 (stereo not given) [Labetalol],178.1 Å²
14,Nc1nnc(-c2cccc(Cl)c2Cl)c(N)n1 [Lamotrigine],151.2 Å²
15,COC(=O)C1=C(C)NC(C)=C(C(=O)OC(C)(C)CN(C)CCC(c2ccccc2)c2ccccc2)C1c1cccc([N+](=O)[O-])c1 (stereo not given) [Lercanidipine],249.8 Å²
16,CNC[C@@H](C)CN1c2ccccc2S(=O)c2ccc(OC)cc21 (stereo not given in full) [Levomepromazine-M N-desmethyl sulfoxide],172.9 Å²
17,CN1CC[C@]23CCCC[C@H]2[C@H]1Cc1ccc(O)cc13 [Levorphanol],161.7 Å²
18,NC(=O)C(CCN1CCC(O)(c2ccc(Cl)cc2)CC1)(c1ccccc1)c1ccccc1 [Loperamid-M didesmethyl],211.9 Å²
19,CN1CCN(C2=Nc3ccccc3Oc3ccc(Cl)cc32)CC1 [Loxapine],175.7 Å²
20,CNCCCC1(C2=CC=CC=C32)CC[C@H]3C4=CC=CC=C14 [Maprotiline],164.2 Å²
21,COc1ccc2[nH]cc(CCNC(C)=O)c2c1 [Melatonin],153.4 Å²
22,CC1CCN(CCCC(=O)c2ccc(F)cc2)CC1 [Melperone],163.5 Å²
23,C[C@]12C[C@@H]3C[C@](C)(C1)C[C@@](N)(C3)C2 [Memantine],146.6 Å²
24,CNC(C)C(=O)c1ccc(C)cc1 (stereo not given) [Mephedrone],143.1 Å²

row,SMILES,collision cross section (N2)
1,Cc1cccc(C)c1NC(=O)C1CCCCN1C (stereo not given) [Mepivacaine],159.1 Å²
2,CN(Cc1cnc2nc(N)nc(N)c2n1)c1ccc(C(=O)N[C@@H](CCC(=O)O)C(=O)O)cc1 [Methotrexate],196.2 Å²
3,CNC(C)C(=O)c1ccc2c(c1)OCO2 (stereo not given) [Methylone],147.3 Å²
4,C[C@]12CCC(=O)C=C1CC[C@@H]1[C@@H]2CC[C@@]2(C)[C@H]1CC[C@]2(C)O [Methyltestosterone],176 Å²
5,COCCc1ccc(OCC(O)CNC(C)C)cc1 (stereo not given) [Metoprolol],172.7 Å²
6,O=C(NCCN1CCOCC1)c1ccc(Cl)cc1 [Moclobemide],162.5 Å²
7,CC(C)(O)c1ccccc1CC[C@@H](SCC1(CC(=O)O)CC1)c1cccc(/C=C/c2ccc3ccc(Cl)cc3n2)c1 [Montelukast],243 Å²
8,CCN(CC)[C@@H](C)[C@H](O)c1ccccc1 [N-diethylnorephedrine],144.6 Å²
9,CC(C)(C)NCC(O)COc1cccc2c1C[C@H](O)[C@H](O)C2 (stereo not given in full) [Nadolol],172 Å²
10,O=C1CC[C@@]2(O)[C@H]3Cc4ccc(O)c5c4[C@@]2(CCN3CC2CC2)[C@H]1O5 [Naltrexone],176.5 Å²
11,c1ccc2c(CC3=NCCN3)cccc2c1 [Naphazoline],149.6 Å²
12,CNS(=O)(=O)CCc1ccc2[nH]cc(C3CCN(C)CC3)c2c1 [Naratriptan],174.3 Å²
13,COC(=O)C1=C(C)NC(C)=C(C(=O)OCCN(C)Cc2ccccc2)C1c1cccc([N+](=O)[O-])c1 (stereo not given) [Nicardipine],212.1 Å²
14,O=C1CN=C(c2ccccc2)c2cc([N+](=O)[O-])ccc2N1 [Nitrazepam],163.6 Å²
15,COc1ccc2c3c1O[C@H]1[C@@H](O)C=C[C@H]4[C@@H](C2)NCC[C@@]341 [Norcodeine],166.1 Å²
16,Cc1nccn1CC1CCc2c(c3ccccc3n2C)C1=O (stereo not given) [Ondansetron],171.7 Å²
17,C=CCOc1ccccc1OCC(O)CNC(C)C (stereo not given) [Oxprenolol],161.7 Å²
18,CN1CC[C@]23c4c5ccc(O)c4O[C@H]2C(=O)CC[C@@]3(O)[C@H]1C5 [Oxymorphone],164.6 Å²
19,CC(=O)Nc1ccc(O)cc1 [Paracetamol],132.2 Å²
20,CCCN1C[C@H](CSC)C[C@@H]2c3cccc4[nH]cc(c34)C[C@H]21 [Pergolide],177.9 Å²
21,CCOC(=O)C1(c2ccccc2)CCN(C)CC1 [Pethidine],158.5 Å²
22,CC(C)NCC(O)COc1cccc2[nH]ccc12 (stereo not given) [Pindolol],159.1 Å²
23,NC(=O)C1(N2CCCCC2)CCN(CCCC(=O)c2ccc(F)cc2)CC1 [Pipamperone],194.1 Å²
24,CN1CCC(=C2c3ccccc3CCc3sccc32)CC1 [Pizotifen],175.4 Å²

row,SMILES,collision cross section (N2)
1,CC(CN1c2ccccc2Sc2ccccc21)N(C)C (stereo not given) [Promethazine],163.7 Å²
2,CC(C)NCC(O)COc1cccc2ccccc12 (stereo not given) [Propranolol],162.7 Å²
3,Fc1ccccc1C1=NCC(=S)N(CC(F)(F)F)c2ccc(Cl)cc21 [Quazepam],174.9 Å²
4,OCCOCCN1CCN(C2=Nc3ccccc3Sc3ccccc32)CC1 [Quetiapine],192.9 Å²
5,CCOc1ccccc1O[C@H](c1ccccc1)[C@H]1CNCCO1 [Reboxetine],174 Å²
6,Cc1nc2n(c(=O)c1CCN1CCC(c3noc4cc(F)ccc34)CC1)CCCC2O (stereo not given) [Risperidone-M 9-hydroxy],209.9 Å²
7,O=C(O)C(c1ccccc1)C1CCCCN1 (stereo not given) [Ritalinic acid],150 Å²
8,CN(C)CCc1c[nH]c2ccc(Cn3cncn3)cc12 [Rizatriptan],160.3 Å²
9,CCCN(CCC)CCc1cccc2c1CC(=O)N2 [Ropinirole],163.8 Å²
10,NC(=O)c1cn(Cc2c(F)cccc2F)nn1 [Rufinamide],148.6 Å²
11,O=C1NCCN1CCN1CCC(c2cn(-c3ccc(F)cc3)c3ccc(Cl)cc23)CC1 [Sertindol],215.9 Å²
12,CC(C)CC(N(C)C)C1(c2ccc(Cl)cc2)CCC1 (stereo not given) [Sibutramine],168 Å²
13,CCCc1nn(C)c2c(=O)[nH]c(-c3cc(S(=O)(=O)N4CCN(C)CC4)ccc3OCC)nc12 [Sildenafil],212.7 Å²
14,COc1ncnc(NS(=O)(=O)c2ccc(N)cc2)c1OC [Sulfadoxine],165.3 Å²
15,Nc1ccc(S(=O)(=O)Nc2ccccn2)cc1 [Sulfapyridine],150.8 Å²
16,CN1CC(=O)N2[C@H](c3ccc4c(c3)OCO4)c3[nH]c4ccccc4c3C[C@@H]2C1=O [Tadalafil],189.4 Å²
17,CC/C(=C(\c1ccccc1)c1ccc(OCCN(C)C)cc1)c1ccccc1 [Tamoxifen],197.1 Å²
18,CN1C(=O)C(O)N=C(c2ccccc2)c2cc(Cl)ccc21 (stereo not given) [Temazepam],166.1 Å²
19,CN1C(C(=O)Nc2ccccn2)=C(O)c2sccc2S1(=O)=O [Tenoxicam],170.4 Å²
20,CC(C)(C)NCC(O)c1cc(O)cc(O)c1 (stereo not given) [Terbutaline],154.9 Å²
21,COc1cc2c(cc1OC)C1CC(=O)C(CC(C)C)CN1CC2 (stereo not given) [Tetrabenazine],182.6 Å²
22,COc1ccc2c3c1O[C@H]1C(OC(C)=O)=CC[C@H]4[C@@H](C2)N(C)CC[C@]314 [Thebacon],178.2 Å²
